Data taken from ChEMBL document CHEMBL1201862, “PubChem BioAssay data set” (2004).
The source made the active and inactive calls.

Columns and labels:
[1] = target: T1, Orexin receptor type 2 (Homo sapiens, UniProt O43614); assay: Counterscreen assay for antagonists of the orexin 1 receptor (OX1R; HCRTR1): Fluorescence-based cell-based dose response assay for antagonists of the orexin 2 receptor (OX2R; HCRTR2), run by assay provider.; format: functional
T1 sequence (O43614 whole entry): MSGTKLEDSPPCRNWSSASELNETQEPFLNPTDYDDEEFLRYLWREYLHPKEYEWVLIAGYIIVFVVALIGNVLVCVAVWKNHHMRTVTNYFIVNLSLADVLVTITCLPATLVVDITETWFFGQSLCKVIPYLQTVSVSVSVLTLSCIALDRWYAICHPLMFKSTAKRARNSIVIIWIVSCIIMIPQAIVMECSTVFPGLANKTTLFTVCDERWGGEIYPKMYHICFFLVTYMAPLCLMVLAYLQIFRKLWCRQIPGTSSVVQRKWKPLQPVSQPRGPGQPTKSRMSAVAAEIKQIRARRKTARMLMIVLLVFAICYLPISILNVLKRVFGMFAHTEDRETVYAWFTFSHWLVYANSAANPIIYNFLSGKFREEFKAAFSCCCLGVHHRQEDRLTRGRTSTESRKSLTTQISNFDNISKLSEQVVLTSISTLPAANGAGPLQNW

[2] = target: T2, Orexin/Hypocretin receptor type 1 (Homo sapiens, UniProt O43613); assay: Homogeneous Time Resolved Fluorescence (HTRF)-based cell-based high throughput dose response assay for antagonists of the orexin 1 receptor (OX1R; HCRTR1). [Related pubchem assays (depositor defined):AID434989, AID435008, AID463079, AID485270, AID492963, AID492964, AID492965, AID493232, AID504717, AID504718]; format: functional
T2 sequence (O43613 whole entry): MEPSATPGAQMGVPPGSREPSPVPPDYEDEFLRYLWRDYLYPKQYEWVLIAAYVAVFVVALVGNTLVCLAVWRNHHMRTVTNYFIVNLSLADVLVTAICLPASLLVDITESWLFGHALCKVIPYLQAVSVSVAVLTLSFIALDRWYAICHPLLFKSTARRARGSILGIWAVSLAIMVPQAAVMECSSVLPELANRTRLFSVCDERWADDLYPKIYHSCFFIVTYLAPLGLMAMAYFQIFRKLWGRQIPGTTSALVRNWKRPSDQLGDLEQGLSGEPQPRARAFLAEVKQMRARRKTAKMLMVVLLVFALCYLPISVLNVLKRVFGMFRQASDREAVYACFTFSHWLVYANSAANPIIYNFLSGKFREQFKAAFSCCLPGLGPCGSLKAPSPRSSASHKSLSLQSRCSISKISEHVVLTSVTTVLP

[3] = target: T2, Orexin/Hypocretin receptor type 1; assay: Fluorescence-based cell-based high throughput dose response assay for antagonists of the orexin 1 receptor (OX1R; HCRTR1). [Related pubchem assays (depositor defined):AID434989, AID435008, AID463079, AID485270, AID492963, AID492964, AID492965, AID493232, AID504717, AID504718]; format: functional
[4] = target: T1, Orexin receptor type 2; assay: Counterscreen assay for antagonists of the orexin 1 receptor (OX1R; HCRTR1): Homogeneous Time Resolved Fluorescence (HTRF)-based cell-based dose response assay for antagonists of the orexin 2 receptor (OX2R; HCRTR2), run by assay provider.; format: functional
[5] = (§1) Counterscreen for antagonists of the orexin 1 receptor (OX1R; HCRTR1): Fluorescence-based cell-based high throughput dose response assay to identify antagonists of the parental CHO cell line. [Related pubchem assays (depositor defined):AID434989, AID435008, AID463079, AID485270, AID492963, AID492964, AID492965, AID493232, AID504699, AID504701]; format: functional
[6] = tested on: CHO-K1; assay: as §1, with “Homogeneous time resolved fluorescence (HTRF)-based” for “Fluorescence-based”, “cell-based” for “cell-based high throughput”, “CHO-K1” for “CHO”; format: functional; conditions: Cricetulus griseus;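 also: potency for inhibition of ATP-stimulated IP1 production as antagonists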
[7] = target: T3, Caspase-3 (Homo sapiens, UniProt P42574); assay: SAR Analysis of small molecule inhibitors of Sentrin-specific proteases (SENPs) using a Caspase-3 Selectivity assay. [Related pubchem assays (depositor defined):AID2540, AID2599, AID434973, AID489001]; format: functional
T3 sequence (P42574 whole entry): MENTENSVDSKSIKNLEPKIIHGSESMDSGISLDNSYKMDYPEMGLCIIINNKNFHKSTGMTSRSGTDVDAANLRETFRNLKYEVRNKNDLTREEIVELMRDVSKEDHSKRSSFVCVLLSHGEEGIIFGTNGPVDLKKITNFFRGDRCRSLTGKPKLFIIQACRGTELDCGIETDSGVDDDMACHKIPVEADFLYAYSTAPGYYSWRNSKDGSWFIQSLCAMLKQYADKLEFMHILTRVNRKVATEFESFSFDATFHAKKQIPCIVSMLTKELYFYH

[8] = target: T4, Sentrin-specific protease 8 (Homo sapiens, UniProt Q96LD8); assay: inhibition of human SENP8 cleavage activity – biochemical, luminescence, SAR follow-up (AID 504501); format: functional
T4 sequence (Q96LD8 whole entry): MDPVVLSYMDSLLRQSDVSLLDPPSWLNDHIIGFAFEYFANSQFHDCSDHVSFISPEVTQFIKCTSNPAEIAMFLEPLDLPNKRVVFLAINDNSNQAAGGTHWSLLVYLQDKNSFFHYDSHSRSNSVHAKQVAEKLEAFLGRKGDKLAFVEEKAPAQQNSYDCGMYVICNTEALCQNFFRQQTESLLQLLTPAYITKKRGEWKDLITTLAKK

[9] = target: T5, Sentrin-specific protease 7 (Homo sapiens, UniProt Q9BQF6); assay: inhibition of human SENP7 cleavage activity – biochemical, luminescence, SAR follow-up (AID 504497); format: functional
T5 sequence (Q9BQF6 whole entry): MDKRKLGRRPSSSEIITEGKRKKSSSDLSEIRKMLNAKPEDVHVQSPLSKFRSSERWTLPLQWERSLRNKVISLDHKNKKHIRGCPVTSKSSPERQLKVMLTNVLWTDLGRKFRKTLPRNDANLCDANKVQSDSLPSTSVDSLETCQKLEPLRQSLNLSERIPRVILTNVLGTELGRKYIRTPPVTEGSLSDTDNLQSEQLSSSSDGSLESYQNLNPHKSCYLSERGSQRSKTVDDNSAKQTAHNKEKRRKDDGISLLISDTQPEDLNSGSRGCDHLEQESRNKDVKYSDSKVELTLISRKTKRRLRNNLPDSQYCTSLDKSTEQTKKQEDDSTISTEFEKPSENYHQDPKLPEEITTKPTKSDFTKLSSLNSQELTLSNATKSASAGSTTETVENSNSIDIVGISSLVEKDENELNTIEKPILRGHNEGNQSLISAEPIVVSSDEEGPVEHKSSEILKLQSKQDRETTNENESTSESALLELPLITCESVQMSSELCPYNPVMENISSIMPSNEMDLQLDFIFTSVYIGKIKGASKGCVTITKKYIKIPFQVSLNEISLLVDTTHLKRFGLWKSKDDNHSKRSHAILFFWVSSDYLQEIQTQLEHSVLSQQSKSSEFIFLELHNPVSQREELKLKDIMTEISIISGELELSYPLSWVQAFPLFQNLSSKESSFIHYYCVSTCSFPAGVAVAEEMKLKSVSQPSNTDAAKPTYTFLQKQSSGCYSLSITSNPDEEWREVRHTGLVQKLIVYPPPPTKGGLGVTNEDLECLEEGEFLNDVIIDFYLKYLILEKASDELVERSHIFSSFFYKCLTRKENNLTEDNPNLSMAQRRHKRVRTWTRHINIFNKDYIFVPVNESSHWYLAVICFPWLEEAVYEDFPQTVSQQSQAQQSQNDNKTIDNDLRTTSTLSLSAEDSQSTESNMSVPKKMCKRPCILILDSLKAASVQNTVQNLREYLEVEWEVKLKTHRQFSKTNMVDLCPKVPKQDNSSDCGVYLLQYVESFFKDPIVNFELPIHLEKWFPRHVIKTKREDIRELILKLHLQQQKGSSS

[10] = target: T6, Sentrin-specific protease 6 (Homo sapiens, UniProt Q9GZR1); assay: SAR Analysis of small molecule inhibitors of Sentrin-specific protease 6 (SENP6) using a Luminescent assay. [Related pubchem assays (depositor defined):AID2582, AID2599]; format: functional
T6 sequence (Q9GZR1 whole entry): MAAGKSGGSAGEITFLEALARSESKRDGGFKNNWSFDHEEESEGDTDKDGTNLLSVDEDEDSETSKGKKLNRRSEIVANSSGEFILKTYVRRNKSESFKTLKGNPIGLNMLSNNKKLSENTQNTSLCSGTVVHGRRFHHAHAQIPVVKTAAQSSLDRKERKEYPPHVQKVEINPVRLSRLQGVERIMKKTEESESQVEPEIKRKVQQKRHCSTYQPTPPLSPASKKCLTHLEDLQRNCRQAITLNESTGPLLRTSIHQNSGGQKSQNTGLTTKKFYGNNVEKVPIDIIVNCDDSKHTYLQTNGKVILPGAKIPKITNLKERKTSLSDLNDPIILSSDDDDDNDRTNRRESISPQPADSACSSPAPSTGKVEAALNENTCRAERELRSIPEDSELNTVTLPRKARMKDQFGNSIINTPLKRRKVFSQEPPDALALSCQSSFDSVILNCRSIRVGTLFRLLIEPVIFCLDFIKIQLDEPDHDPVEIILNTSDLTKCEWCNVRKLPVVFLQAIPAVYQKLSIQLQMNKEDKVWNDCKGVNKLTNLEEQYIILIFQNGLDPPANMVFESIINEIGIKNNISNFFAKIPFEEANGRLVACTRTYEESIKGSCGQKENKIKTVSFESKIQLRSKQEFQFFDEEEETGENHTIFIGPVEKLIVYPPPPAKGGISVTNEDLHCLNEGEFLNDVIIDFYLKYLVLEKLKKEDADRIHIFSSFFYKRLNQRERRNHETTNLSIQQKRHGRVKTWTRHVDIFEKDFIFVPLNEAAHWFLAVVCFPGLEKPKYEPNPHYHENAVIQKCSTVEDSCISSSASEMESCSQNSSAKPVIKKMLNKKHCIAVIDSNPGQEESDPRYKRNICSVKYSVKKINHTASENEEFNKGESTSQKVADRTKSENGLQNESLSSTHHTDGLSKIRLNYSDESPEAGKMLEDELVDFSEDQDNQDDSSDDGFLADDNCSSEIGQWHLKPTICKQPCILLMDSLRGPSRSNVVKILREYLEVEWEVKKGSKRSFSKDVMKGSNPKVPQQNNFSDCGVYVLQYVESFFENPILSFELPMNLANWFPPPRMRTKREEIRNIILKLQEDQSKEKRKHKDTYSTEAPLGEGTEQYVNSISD

[11] = target: T7, Insulin-degrading enzyme (Homo sapiens, UniProt P14735); assay: cellular IDE activation of Abeta substrate cleavage – fluorescence polarization, HEK cells, dose response (AID 588439); format: functional, cell-based
T7 sequence (P14735 whole entry): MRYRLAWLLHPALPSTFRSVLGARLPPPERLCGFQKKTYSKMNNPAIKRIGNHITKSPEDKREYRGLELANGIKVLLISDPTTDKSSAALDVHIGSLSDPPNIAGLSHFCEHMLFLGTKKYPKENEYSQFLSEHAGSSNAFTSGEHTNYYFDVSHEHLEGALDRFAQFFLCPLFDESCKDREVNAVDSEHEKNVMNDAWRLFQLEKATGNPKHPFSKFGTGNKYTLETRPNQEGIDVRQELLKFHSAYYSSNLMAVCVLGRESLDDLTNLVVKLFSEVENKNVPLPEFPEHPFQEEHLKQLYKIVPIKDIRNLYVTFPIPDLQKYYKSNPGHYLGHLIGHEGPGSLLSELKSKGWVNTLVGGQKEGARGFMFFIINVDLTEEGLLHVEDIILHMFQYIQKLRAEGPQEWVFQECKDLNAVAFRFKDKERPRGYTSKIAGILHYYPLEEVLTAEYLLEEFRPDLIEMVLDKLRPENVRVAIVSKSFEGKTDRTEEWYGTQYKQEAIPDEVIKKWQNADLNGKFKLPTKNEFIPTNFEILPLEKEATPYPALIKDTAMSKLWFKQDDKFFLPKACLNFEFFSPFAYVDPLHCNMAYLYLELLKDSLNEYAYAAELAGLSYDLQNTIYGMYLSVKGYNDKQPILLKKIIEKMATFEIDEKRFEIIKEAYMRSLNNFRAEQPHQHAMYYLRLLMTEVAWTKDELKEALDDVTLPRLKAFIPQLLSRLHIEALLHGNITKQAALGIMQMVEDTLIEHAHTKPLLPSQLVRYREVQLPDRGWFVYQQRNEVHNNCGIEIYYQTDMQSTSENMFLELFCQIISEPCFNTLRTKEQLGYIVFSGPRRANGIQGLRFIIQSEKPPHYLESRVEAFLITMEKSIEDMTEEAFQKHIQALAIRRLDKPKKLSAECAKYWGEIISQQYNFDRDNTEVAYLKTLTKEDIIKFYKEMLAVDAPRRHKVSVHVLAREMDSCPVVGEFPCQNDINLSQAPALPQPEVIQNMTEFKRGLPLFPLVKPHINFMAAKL

[12] = tested on: HEK293; assay: membrane integrity loss in HEK cells – cell-based, fluorescence, cytotoxicity control for IDE activator project, dose response (AID 588440); format: functional; conditions: Homo sapiens;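 also: cytotoxicity by LDH release measuring loss of membrane integrity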
[13] = target: T7, Insulin-degrading enzyme; assay: recombinant IDE activation, cell-free – biochemical, fluorescence polarization, counter-screen for IDE activator project, dose response (AID 588681)
[14] = tested on: HEK293; assay: optical interference in Abeta FP readout, dose response, artefact control for IDE activator project, biochemical, fluorescence polarization (AID 588442); format: functional, cell-based; conditions: Homo sapiens

## COC(=O)c1ccccc1NC(=O)CSc1nc(O)cc(=O)n1C1CCCC1
[1]
  IC50: 56.2 µM (inactive)
[2]
  IC50: 0.137 µM (active)
[3]
  IC50: 4.86 µM (active)
[4]
  IC50: > 50 µM (inactive)
[5]
  IC50: > 49.8 µM (inactive)
[6]
  IC50: > 66.2 µM (inactive)

## COc1ccc(C2C(C#N)=C(/N=C/N(C)C)Oc3c2c(C)nn3-c2ccccc2)cc1 (stereo not drawn)
[7]
  IC50: > 99 µM (inactive)
[8]
  IC50: > 99 µM (inactive)
[9]
  IC50: > 99 µM (inactive)
[10]
  IC50: > 99 µM (inactive)

## C=CCN1C(=O)c2ccc(C(=O)OCC(=O)N(CC)C3CCS(=O)(=O)C3)cc2C1=O (stereo not drawn)
[11]
  EC50: > 54.7 µM (inactive)
[12]
  IC50: > 89.2 µM (inactive)
[13]
  EC50: > 54.7 µM (inactive)
[14]
  EC50: > 54.7 µM (inactive)

## Fc1cc(F)cc(-c2noc(/C=C/c3ccccc3)n2)c1
[7]
  IC50: > 99 µM (inactive)
[8]
  IC50: > 99 µM (inactive)
[9]
  IC50: > 99 µM (inactive)
[10]
  IC50: > 99 µM (inactive)
